From US12171775B2, “Use of cladribine for treating autoimmune neuromuscular disease” (priority 2017, dated 2024)

Experiments:
[1] = system: patient with acetylcholine receptor antibody positive myasthenia gravis; test: Treatment of a person suffering from myasthenia gravis with cladribine (single patient; clinical rating scales and tolerability); assay type: in vivo, human
Protocol: A patient with existing, acetylcholine receptor antibody positive myasthenia gravis (MG) diagnosed.
They received 20 mg cladribine, administered by subcutaneous injection of 2.5 mg cladribine in 2.5 ml in each of four limbs (total 10 mg), on each of two consecutive days. This total dose of 20 mg is markedly less than the total doses of 200-400 mg given in recent multiple sclerosis trials. Clinical assessment using two scales was performed one week before initiation of cladribine administration, and three months after first cladribine administration. The treatment with oral steroids and pyridostigmine remained stable over observation period.
The two scales used were:
• Myasthenia Gravis Composite Scale (Burns T et al. Neurology 74:1434-40 (2010) • Myasthenia Gravis Activities of Daily Living (Wolfe G et al. Neurology 52: 1487-89 (1999)

[2] = system: patient with IgM associated inflammatory peripheral neuropathy; conditions: intravenous, approximately 100 mg cumulative dose; cited from earlier work
[3] = target: A2A (adenosine receptor class 2a) (Homo sapiens, UniProt P29274); conditions: cited from earlier work
human lymphocytes = conditions: phosphorylation by CK blocked, lymphocyte death does not occur; cited from earlier work
[4] = system: multiple sclerosis (MS) patients; conditions: 3.5 mg/kg and 5.25 mg/kg by oral tablets; cited from earlier work
[5] = 3 months post vs pre-cladribine

A2A (adenosine receptor class 2a), sequence (P29274 whole entry): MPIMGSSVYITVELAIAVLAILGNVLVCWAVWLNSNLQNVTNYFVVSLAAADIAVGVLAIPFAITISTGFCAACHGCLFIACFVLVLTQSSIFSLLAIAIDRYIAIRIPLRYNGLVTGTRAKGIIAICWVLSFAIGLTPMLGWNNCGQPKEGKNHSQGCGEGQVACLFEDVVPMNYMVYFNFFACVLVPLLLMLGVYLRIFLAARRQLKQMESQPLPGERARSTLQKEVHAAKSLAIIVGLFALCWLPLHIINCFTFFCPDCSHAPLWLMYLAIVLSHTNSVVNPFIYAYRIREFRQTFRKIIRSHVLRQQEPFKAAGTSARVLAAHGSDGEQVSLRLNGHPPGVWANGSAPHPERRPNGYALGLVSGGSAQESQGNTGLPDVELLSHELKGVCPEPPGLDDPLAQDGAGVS

Row | SMILES | Tolerability of prior azathioprine treatment ([1]; same MG patient, before cladribine, stopped after 1 week of treatment) | Clinical outcome in IgM associated inflammatory peripheral neuropathy [2] | Affinity at A2A receptors [3] | MG Composite Scale score, 3 months post-cladribine ([1]; 20 mg total s.c. (10 mg on each of two consecutive days), 3 months after first administration, pre-cladribine score 31) | MG Activities of Daily Living score, 3 months post-cladribine ([1]; 20 mg total s.c., 3 months after first administration, pre-cladribine score 19) | Adverse events considered possible side effects of cladribine ([1]; 20 mg total s.c., MG patient) | Transient worsening of signs after treatment initiation ([1]; 20 mg total s.c., MG patient) | Improvement on the MG Activities of Daily Living scale [1, 5] [point] | Improvement on the MG Composite Scale [1, 5] [point] | Durability of clinical improvement after the 3 month assessment ([1]; MG patient, led to gradual withdrawal of baseline treatment) | Period of beneficial effects on the disease without frequent retreatment ([1]; after a short period of treatment) | Induced cytokine production (human lymphocytes) | Clinical outcome in MS (relapses, disability, MRI disease activity) [4]
1 | Cn1cnc([N+](=O)[O-])c1Sc1ncnc2nc[nH]c12 [azathioprine] | severe intolerance due to nausea and vomiting | – | – | – | – | – | – | – | – | – | – | – | –
2 | Nc1nc(Cl)nc2c1ncn2[C@H]1C[C@H](O)[C@@H](CO)O1 [cladribine, 2-chloro-2′-deoxyadenosine] | – | symptomatic improvement and reduced levels of pathogenic antibodies | high affinity | 6 | 8 | did not experience any adverse events | did not produce a transient worsening of signs | 11 | 25 | sustained over the following seven months | over 10 months | decreased | fewer relapses, less disability, and less disease activity
